The results in this text go back to US5135849A, “In-vitro methods for identifying compositions which are agonists and antagonists of androgens” (priority 1989, dated 1992).

For assay [1], the system named is LNCaP cells. Nature of the assay: Proliferation rate (doubling time) of LNCaP cells in 10% CDHS. It is filed as cell-based, human. Particulars: compared with 5α-DHT. As to the method: 8. To obtain reproducible, accurate, and reliable data consistently using this protocol, a series of quality assurance measures should be employed. […] These goals are achieved using the optimal 5-7 day incubation period. […] For this innoculum, cells are harvested every 24-48 hours (preferably as triplicate samples) until the entire 5-7 day incubation period expires. A good estimate of the proliferation rate is the mean generation time, "tD ". tD is calculated from the equation α=1/txln Ct /Co , where Co is the initial cell number, Ct is the cell number at time-t, and α is the instantaneous cell proliferation constant (tD is the value ln Ct /Co x would have when Ct =2Co) "tD " is expressed in time units, i.e., hr. The slopes of the different growth curves are calculated by fitting the experimental data to a straight line by regression analysis of the pairs ln cell numbers/time. to is defined as the moment at which the seeding medium is replaced by the maintaining medium.
The inhibitory effect of CD human sera was not instantaneous; at the end of 3 to 4 days the population increase was halted and remained stable for up to 30 days without media changes.

Assay [2] deals with LNCaP cells. Kind of assay: Phase 2 protocol for androgen antagonistic properties (LNCaP proliferation with 3×10^-10 M 5α-DHT plus test substance). As to conditions: Phase 2 protocol.
For assay [3], the system named is LNCaP cells. Nature of the assay: Phase 1 protocol to identify androgen agonist properties (LNCaP cell proliferation in CDHS medium). It is filed as cell-based, human. Particulars: for CHARACTERISTICS: classification from Phase 1 and Phase 2 protocols; for PHASE 1 CELL COUNT: final cell number per well at the optimal test conc., 10% CDHS. An excerpt:
This protocol measures the potential agonistic properties of the substance under test. All manipulations are to be carried out under sterile conditions using disposable plastic tissue culture multiwell plates with all manipulations preferrably being performed in a tissue culture hood.
1. The cell line of choice is the LNCaP-FGC cell culture, an androgen-sensitive prostate tumor cell line. The LNaP cell line is routinely grown in 5% fetal bovine serum--supplemented Dulbecco's modified Eagle minimal essential medium (hereinafter "5% FBS/DME"), at 37° C. in a 95% air--5% CO2 atmosphere.
2. The cultured cells growing in 5% FBS/DME are harvested by treatment with trypsin (1:250)--EDTA (0.2%). The cells are detached by brief exposure to trypsin for about two minutes. To avoid excessive proteolysis, the reaction is quenched by addition of equal volumes of 5% FBS/DME. The resulting cell suspension is collected into a sterile centrifuge tube and resuspended by pipetting gently. The aliquots of this cell suspension thus obtained are dispersed by means of a Skatron dispenser into individual wells containing the seedling medium (1 ml of 5% FBS/DME per well) of a multiwell plate. Each final prepared suspension preferably contains 50,000 cells in a volume of 1.0 ml. It is desirable that the number of cells be counted and verified by means of a Coulter Counter (Coulter Electronics, Hialeah, FL).
The number of wells in each plate will correspond to the number of concentrations per test substances to be evaluated and thus is merely a question of choice or convenience to the user. Into each well, 25 microliter (hereinafter "ul") aliquots of the prepared cell suspension are added using a 1.0 ml syringe fitted with a 19 gauge needle attached to a repetitive Dunn pipetter (Skatron Dispenser). The microtiter plate is then gently shaken to avoid unequal cell distribution within each individual well. The seeded cells are then allowed to attach to the plastic surface of the well proper over a period of 24-72 hours' duration after which the fluid is changed to the experimental maintaining medium.
3 At the time of test, all the seeded cells in each well of the multiwell plate receive 10% heat inactivated--charcoal-dextran human stripped serum (CDHS) in DME at a volume of 0.9 ml per well. Although higher concentrations of CDHS may be utilized up to and including 40% concentrations, the 10% concentration is most preferred.
5. To the other prepared (seeded) wells, 100 ul of the test substance to be evaluated is added as a 10X stock solution to achieve final concentrations ranging from 10^-5 M to at least 10^-12 M. The substance under test is preferably prepared as a stock solution in ethanol, most preferrably as a 10^-3 M solution. All dilutions from the stock preparation are made using DME. The ethanol concentration in the culture medium should be kept below […] by volume. This preparative technique and precaution avoids the need to filter the various volumes of test substance to achieve sterility. This is particularly valuable because steroidal compositions are known to become adsorbed to the commercially obtained filter membranes used for sterilization. The addition of the test substance in appropriate concentrations to the cultured cells and the maintaining medium forms a series of individual reaction mixtures, each of which is varied only by the concentration of the test substance present in the well.
6. After the series of individual reaction mixtures are formed, all of the cultured cells under test in each well of the microtiter plate are incubated at 37° C. preferably in an atmosphere of 5% CO2 /95% air under saturating humidity. During this incubation time, it is desired and preferred that the cultured cells employed in the test be maintained in an atmosphere most advantageous for survival and growth of that cell line. The incubation period preferably is in the range of from 5 to 7 days' duration.

Assay [4] deals with 3H-E2 binding in LNCaP cells. Nature of the assay: Competition with 3H-E2 binding in LNCaP cells. Set-up: species or system human. The method, then:
(§1) Steroid receptors measurement: The presence of intracellular sex steroid binding proteins was investigated in whole cell extracts as well as in intact cells. Cytosolic and nuclear extracts were obtained after centrifugation (105,000 g, 45 min.) of a sonicated cellular suspension in TKE buffer (10 mM Tris, 500 mM KCl, 0.5 mM EDTA, pH 7.4). Aliquots of this extract were incubated for 18 hours at 4° C. with increasing concentrations (2×10^- M to 2×10^-8 M) of labelled steroids, with and without a 200-fold excess of the corresponding unlabelled steroid. Bound and free fractions were separated by dextran-coated charcoal adsorption. Intact cells grown in monolayer culture were assayed for specific steroid binding [Olea-Serrano et al., Eur. J. Cancer Clin. Oncol. 21:965-973 (1983)]. Briefly, the cells were incubated in 12-well plates during 50 minutes at 37° C. in DME containing the labelled steroid with and without excess of cold competitor. The range of concentrations used was the same as that in the cytosolic-nuclear extract assay. […] The intracellular radioactivity was extracted with ethanol after ice-cold PBS washing. In both types of experiments, Scatchard analysis of the saturation data was used to quantify the maximal binding capacity (Bmax) and the affinity parameters (dissociation constant, Kd) using the SCAFIT program [Munson et al., Anal. Biochem. 107:220-239 (1980)].

In the next assay the target is T1, androgen receptor (Homo sapiens, UniProt P10275, T878A).
T1 construct: the presence of specific androgen receptors in LNCaP cells; endogenous in cells; extract or intact cells for the saturation analysis
Nature of the assay: Competition for androgen receptors with 3H-testosterone in LNCaP cytosol-nuclear extracts (RBA). Format: binding. As to conditions: Table II, 5α-DHT = 100; 6×10^-9 M 3H-testosterone. The method, then:
as §1
Cytosol-nuclear extracts were used to study competition for androgen receptors. […] The relative binding affinity (RBA) was calculated from the equation: […]

T1 sequence (P10275 whole entry T878A): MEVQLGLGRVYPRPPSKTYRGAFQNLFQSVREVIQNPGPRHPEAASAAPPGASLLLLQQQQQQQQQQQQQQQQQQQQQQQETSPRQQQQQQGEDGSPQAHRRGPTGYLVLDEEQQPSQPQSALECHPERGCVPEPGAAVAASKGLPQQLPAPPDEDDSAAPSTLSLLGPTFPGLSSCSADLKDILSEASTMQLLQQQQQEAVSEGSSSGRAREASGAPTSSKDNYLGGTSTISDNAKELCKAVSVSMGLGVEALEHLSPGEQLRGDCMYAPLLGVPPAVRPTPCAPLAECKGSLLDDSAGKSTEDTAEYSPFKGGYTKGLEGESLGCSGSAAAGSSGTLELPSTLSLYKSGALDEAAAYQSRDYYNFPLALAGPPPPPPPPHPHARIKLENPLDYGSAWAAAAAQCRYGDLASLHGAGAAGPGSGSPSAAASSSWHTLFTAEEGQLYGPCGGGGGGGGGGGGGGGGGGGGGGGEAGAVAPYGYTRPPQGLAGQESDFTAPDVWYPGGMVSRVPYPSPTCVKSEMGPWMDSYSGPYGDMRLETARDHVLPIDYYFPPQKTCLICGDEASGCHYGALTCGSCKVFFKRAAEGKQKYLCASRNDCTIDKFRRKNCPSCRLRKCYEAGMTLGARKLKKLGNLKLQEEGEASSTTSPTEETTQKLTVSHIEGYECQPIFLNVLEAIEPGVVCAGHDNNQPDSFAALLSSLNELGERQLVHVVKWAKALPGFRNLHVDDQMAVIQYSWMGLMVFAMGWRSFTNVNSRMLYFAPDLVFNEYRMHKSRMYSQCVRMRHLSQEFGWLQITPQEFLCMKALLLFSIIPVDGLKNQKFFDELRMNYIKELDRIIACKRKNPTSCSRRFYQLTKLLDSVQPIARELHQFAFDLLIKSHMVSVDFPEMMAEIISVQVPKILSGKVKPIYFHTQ

Consider `C[C@]12CC[C@@H]3c4ccc(O)cc4CC[C@H]3[C@@H]1CC[C@@H]2O` [estradiol 17β, estra-1,3,5(10)-triene-3,17-diol], for which the “population doubling time, in words” value in the assay with LNCaP cells [1] is recorded as “slightly shorter population doubling time”. In addition, the “antagonistic activity, in words” value in the assay with LNCaP cells [2] is given as “no antagonistic activity”. For the same compound, in the assay on LNCaP cells [3], the CHARACTERISTICS entry is “full agonist” and the “PHASE 1 CELL COUNT” value was 4.0 × 10^5. In addition, the CHARACTERISTICS result in the assay with LNCaP cells [3] (listed as estradiol-17β) is “full agonists”.

For the compound `CC/C(=C(/CC)c1ccc(O)cc1)c1ccc(O)cc1` [DES, diethylstilbestrol], the “agonistic / proliferative activity, in words” value in the assay with LNCaP cells [3] (Phase 1 protocol, CDHS-supplemented media) is on record as “no agonistic activity at all”. Moreover, in the assay on LNCaP cells [3], the CHARACTERISTICS entry is listed as “full antagonist” and the “PHASE 1 CELL COUNT” value is on record as 5 × 10^4. In addition, in assay [4], the “competition with 3H-E2 binding, in words” value was “did not compete”.

For `C[C@]12C[C@H](CCl)[C@@H]3c4ccc(O)cc4CC[C@H]3[C@@H]1CC[C@@H]2O` [Org 4333, 11β-chloromethyl estradiol], the “RBA (relative binding affinity to the androgen receptor)” value on androgen receptor is reported as 1.2. Also, the “antagonistic activity, in words” value with LNCaP cells [2] was “no antagonistic activity”. Further, the “RELATIVE PROLIFERATIVE POTENCY” value in the assay on LNCaP cells [3] (Table II, 5α-DHT = 1.0, 5 × 10^4 cell inoculum grown in CDHS for 8 days) is on record as 0.01. Besides, in the assay with LNCaP cells [3], the CHARACTERISTICS result was “full agonists” and the “PHASE 1 CELL COUNT” value is reported as 4.0 × 10^5.

For `C#C[C@]1(O)CC[C@H]2[C@@H]3CCc4cc(O)ccc4[C@H]3[C@@H](OC)C[C@@]21C` [R2858, 11β-methoxy-19-nor-17a-1,3,5(10)-trien-20-yne-3,17-diol], at androgen receptor, the “RBA (relative binding affinity to the androgen receptor)” value is under 0.01. Moreover, the “PHASE 1 CELL COUNT” value in the assay on LNCaP cells [3] is 5 × 10^4. Further, in assay [4], the “competition with 3H-E2 binding, in words” value is listed as “did not compete”.
